Data: patent US20240207421A1, “NERVE TARGETING PEPTIDES AND METHODS OF USE” (ALUME BIOSCIENCES, INC., priority 2020, published 2024)

Each substance was assayed on Laminin 421/521 (assay: Phage display library screening (Example 2), NEB laminin-binding peptides). Details: Laminin 421/521, not 211 and 411; combined unique sequence count, Python/R script analysis.
Parameters: species or system human
Experimental: Phage display library screens were used to identify peptides that bind to target proteins (including specific laminin trimers) that are expressed in human nerves, as described in Table 3. These screens were also carried out to identify peptides that could bind selectively to nerves versus muscle. Such peptides could therefore be useful for systemic in-vivo labeling of nerves during fluorescence assisted surgery. Specifically, m 13 phage libraries expressing 7 or 12 random amino acid peptides, or a cyclic peptide CX7C, on the N-terminus of the minor coat protein pIII (New England Biolabs; NEB) were processed through multiple rounds of selection for binding to target proteins expressed in nerves, or to excised human nerves, nerve extracts, or muscle, as described further below.
For screening against the specified target proteins in Table 1, including LN211, LN411, LN421, and LN521, the phage library was processed by up to 4 binding and wash cycles. For selection, phage libraries were incubated for up to 24 hours at 4° C. in 96 well plates that had been coated with one of the target proteins. Plates were then washed with PBS and phage were eluted using 0.2M glycine pH 2.0. Phage supernatants where then neutralized with Tris pH 9.0 prior to plating on TGI bacteria and LB agar plates. Colonies were counted to determine titer followed by DNA preparation of pools of phage and NextGen sequencing. After rounds of selection, phage were pooled and amplified for iterative selection. Phage that were bound at each round were sequenced. NextGen sequencing of pools after 2, 3 and 4 rounds of selection was used to isolate candidate sequences that were analyzed further to identify those that specifically bound each unique target protein.
For all NEB sequence datasets, a python script was used to translate, trim, and filter the peptide sequences (see details above). A python script was used to group peptides from different assays according to laminin complex binding (laminin complex 211, 411, 421, or 521) and combine the unique sequence counts for each peptide. An R script was written to merge the peptide sequences from different data files and determine peptides that specifically bind one laminin complex and not the others, or that bind both laminin 421 and 521 but not 211 and 411.

Question: For “ADMPQMTLKYGV (Laminin 421/521-binding peptide)”, which Count is on record?
Answer: 47

Question: For “AGAYTSRHAFDE (Laminin 421/521-binding peptide)”, which Count is on record?
Answer: 39

Question: How did the Count turn out when “AHAAGRDMRQGT (Laminin 421/521-binding peptide)” was run?
Answer: 36

Question: “AKTQAPSNWSGV (Laminin 421/521-binding peptide)” was tested. Which Count did it give?
Answer: 43

Question: How did the Count turn out when “ALGGEPRKAYQR (Laminin 421/521-binding peptide)” was run?
Answer: 45

Question: “ALKIGPETTIYM (Laminin 421/521-binding peptide)” was tested. Which Count did it give?
Answer: 35

Question: For “ALPWQSGVHGTK (Laminin 421/521-binding peptide)”, which Count is on record?
Answer: 34

Question: With “ANRYLAS (Laminin 421/521-binding peptide)” as the substance, how does the Count read?
Answer: 40

Question: How did the Count turn out when “APKVTNARPTQL (Laminin 421/521-binding peptide)” was run?
Answer: 147

Question: “AQGVWWSEWFAP (Laminin 421/521-binding peptide)” was tested. Which Count did it give?
Answer: 42

Question: Which Count does the source give for “AQNLRVHAWASL (Laminin 421/521-binding peptide)” here?
Answer: 28

Question: “AQRMNQA (Laminin 421/521-binding peptide)” was tested. Which Count did it give?
Answer: 38

Question: How did the Count turn out when “ASHSRPLMNYAP (Laminin 421/521-binding peptide)” was run?
Answer: 49

Question: How did the Count turn out when “ATSKYPNSWAQT (Laminin 421/521-binding peptide)” was run?
Answer: 80

Question: Which Count does the source give for “AVRPLGLPDNHR (Laminin 421/521-binding peptide)” here?
Answer: 29

Question: “AVVSQNQMSQQK (Laminin 421/521-binding peptide)” was tested. Which Count did it give?
Answer: 64

Question: Which Count does the source give for “AVYPLDLGAGMR (Laminin 421/521-binding peptide)” here?
Answer: 46

Question: Which Count does the source give for “AWNGNRS (Laminin 421/521-binding peptide)” here?
Answer: 47

Question: How did the Count turn out when “AWVEAQNASNPS (Laminin 421/521-binding peptide)” was run?
Answer: 160

Question: Which Count does the source give for “CFQPKMNSC (Laminin 421/521-binding peptide)” here?
Answer: 42

Question: How did the Count turn out when “CGETTAGKC (Laminin 421/521-binding peptide)” was run?
Answer: 33

Question: How did the Count turn out when “CGITQTTTC (Laminin 421/521-binding peptide)” was run?
Answer: 55

Question: With “CGLATNKSC (Laminin 421/521-binding peptide)” as the substance, how does the Count read?
Answer: 39

Question: How did the Count turn out when “CHNADNNGC (Laminin 421/521-binding peptide)” was run?
Answer: 32

Question: How did the Count turn out when “CHQRQQTYC (Laminin 421/521-binding peptide)” was run?
Answer: 55

Question: “CHRTYNSTC (Laminin 421/521-binding peptide)” was tested. Which Count did it give?
Answer: 46

Question: With “CIGGPHRNC (Laminin 421/521-binding peptide)” as the substance, how does the Count read?
Answer: 29

Question: How did the Count turn out when “CKSERGPEC (Laminin 421/521-binding peptide)” was run?
Answer: 30

Question: Which Count does the source give for “CKSPAIKGC (Laminin 421/521-binding peptide)” here?
Answer: 29

Question: With “CKSPIKGTC (Laminin 421/521-binding peptide)” as the substance, how does the Count read?
Answer: 27

Question: For “CKWTQLWGC (Laminin 421/521-binding peptide)”, which Count is on record?
Answer: 40

Question: “CLHNGQRSC (Laminin 421/521-binding peptide)” was tested. Which Count did it give?
Answer: 37

Question: How did the Count turn out when “CLKDTHLNC (Laminin 421/521-binding peptide)” was run?
Answer: 40

Question: How did the Count turn out when “CLNQKWEAC (Laminin 421/521-binding peptide)” was run?
Answer: 64

Question: “CLQKNHKFC (Laminin 421/521-binding peptide)” was tested. Which Count did it give?
Answer: 27

Question: With “CMNKIQRDC (Laminin 421/521-binding peptide)” as the substance, how does the Count read?
Answer: 131

Question: Which Count does the source give for “CNHLTQKLC (Laminin 421/521-binding peptide)” here?
Answer: 45

Question: “CNSWKAAKC (Laminin 421/521-binding peptide)” was tested. Which Count did it give?
Answer: 29

Question: How did the Count turn out when “CPMHQSKTC (Laminin 421/521-binding peptide)” was run?
Answer: 28

Question: Which Count does the source give for “CQGWPRPMC (Laminin 421/521-binding peptide)” here?
Answer: 30

Question: For “CQTSGHHQC (Laminin 421/521-binding peptide)”, which Count is on record?
Answer: 31

Question: How did the Count turn out when “CSHHKLKQC (Laminin 421/521-binding peptide)” was run?
Answer: 359

Question: “CSKHNHSRC (Laminin 421/521-binding peptide)” was tested. Which Count did it give?
Answer: 295

Question: “CSLANPATC (Laminin 421/521-binding peptide)” was tested. Which Count did it give?
Answer: 52

Question: With “CSRAGLSAC (Laminin 421/521-binding peptide)” as the substance, how does the Count read?
Answer: 30

Question: For “CSSQAKRSC (Laminin 421/521-binding peptide)”, which Count is on record?
Answer: 31

Question: With “CSVWNSGNC (Laminin 421/521-binding peptide)” as the substance, how does the Count read?
Answer: 43

Question: For “CTAWTRQEC (Laminin 421/521-binding peptide)”, which Count is on record?
Answer: 31

Question: “CTDGRNFVC (Laminin 421/521-binding peptide)” was tested. Which Count did it give?
Answer: 28

Question: How did the Count turn out when “CTGETLLTC (Laminin 421/521-binding peptide)” was run?
Answer: 28

Question: Which Count does the source give for “CTGRISKHC (Laminin 421/521-binding peptide)” here?
Answer: 43

Question: “CTKSPSNSC (Laminin 421/521-binding peptide)” was tested. Which Count did it give?
Answer: 58

Question: For “CTPRSATLC (Laminin 421/521-binding peptide)”, which Count is on record?
Answer: 37

Question: How did the Count turn out when “CTSKLARHC (Laminin 421/521-binding peptide)” was run?
Answer: 45

Question: For “CTSSSHQTC (Laminin 421/521-binding peptide)”, which Count is on record?
Answer: 28

Question: Which Count does the source give for “CTWKHRDNC (Laminin 421/521-binding peptide)” here?
Answer: 30

Question: “CVLKCEDQKYRG (Laminin 421/521-binding peptide)” was tested. Which Count did it give?
Answer: 27

Question: For “CWSGNSRSC (Laminin 421/521-binding peptide)”, which Count is on record?
Answer: 42

Question: How did the Count turn out when “DDLLTAPRLGVW (Laminin 421/521-binding peptide)” was run?
Answer: 54

Question: For DGANMENIAPAN, which Count is on record?
Answer: 27

Question: For “DGQVSDHSYVQW (Laminin 421/521-binding peptide)”, which Count is on record?
Answer: 101

Question: “DIMKSPRSNLRS (Laminin 421/521-binding peptide)” was tested. Which Count did it give?
Answer: 37

Question: For “DRLTPITWDWSR (Laminin 421/521-binding peptide)”, which Count is on record?
Answer: 86

Question: How did the Count turn out when “DRMYSTVPAEGL (Laminin 421/521-binding peptide)” was run?
Answer: 27

Question: With “DSLYRGMHQPRI (Laminin 421/521-binding peptide)” as the substance, how does the Count read?
Answer: 29

Question: Which Count does the source give for “DVIHSSRGAYFE (Laminin 421/521-binding peptide)” here?
Answer: 36

Question: “DWTQVRVTNWFL (Laminin 421/521-binding peptide)” was tested. Which Count did it give?
Answer: 35

Question: “EAVSTQI (Laminin 421/521-binding peptide)” was tested. Which Count did it give?
Answer: 27

Question: With “EDRMMTYRYTST (Laminin 421/521-binding peptide)” as the substance, how does the Count read?
Answer: 29

Question: With “ETGGLAYGSGQK (Laminin 421/521-binding peptide)” as the substance, how does the Count read?
Answer: 28

Question: Which Count does the source give for “ETYKVTRVISPW (Laminin 421/521-binding peptide)” here?
Answer: 50

Question: For “EVERILTPHVNN (Laminin 421/521-binding peptide)”, which Count is on record?
Answer: 29

Question: With “EYVKFSHSPRTY (Laminin 421/521-binding peptide)” as the substance, how does the Count read?
Answer: 31

Question: With “EYWHQRGSWFHR (Laminin 421/521-binding peptide)” as the substance, how does the Count read?
Answer: 55

Question: How did the Count turn out when “FNSDSRSTHQED (Laminin 421/521-binding peptide)” was run?
Answer: 29

Question: “FPLKIRT (Laminin 421/521-binding peptide)” was tested. Which Count did it give?
Answer: 42

Question: With “GAMMNSNNLVAR (Laminin 421/521-binding peptide)” as the substance, how does the Count read?
Answer: 43

Question: “GDAQILM (Laminin 421/521-binding peptide)” was tested. Which Count did it give?
Answer: 38

Question: With “GDLLLKR (Laminin 421/521-binding peptide)” as the substance, how does the Count read?
Answer: 47

Question: “GDLWNVP (Laminin 421/521-binding peptide)” was tested. Which Count did it give?
Answer: 51

Question: How did the Count turn out when “GDVITAYINPWP (Laminin 421/521-binding peptide)” was run?
Answer: 39

Question: With “GEPLTRFPNSDS (Laminin 421/521-binding peptide)” as the substance, how does the Count read?
Answer: 52

Question: How did the Count turn out when “GFADVIHRKWSS (Laminin 421/521-binding peptide)” was run?
Answer: 53

Question: “GGGYHIFGPLVT (Laminin 421/521-binding peptide)” was tested. Which Count did it give?
Answer: 43

Question: How did the Count turn out when “GGWQSLWDKPEH (Laminin 421/521-binding peptide)” was run?
Answer: 31

Question: Which Count does the source give for “GGYDLPWANWQN (Laminin 421/521-binding peptide)” here?
Answer: 497

Question: “GHPWTEIDFMSS (Laminin 421/521-binding peptide)” was tested. Which Count did it give?
Answer: 50

Question: For “GHRTLVTSERYL (Laminin 421/521-binding peptide)”, which Count is on record?
Answer: 38

Question: For “GINLRALDLHAN (Laminin 421/521-binding peptide)”, which Count is on record?
Answer: 27

Question: For “GIVPSRHTTGLG (Laminin 421/521-binding peptide)”, which Count is on record?
Answer: 28

Question: For “GKPDHRLVSLWR (Laminin 421/521-binding peptide)”, which Count is on record?
Answer: 309

Question: For “GLLDWGSLQGGN (Laminin 421/521-binding peptide)”, which Count is on record?
Answer: 30

Question: “GPKNHHQ (Laminin 421/521-binding peptide)” was tested. Which Count did it give?
Answer: 51

Question: For “GPLLFRG (Laminin 421/521-binding peptide)”, which Count is on record?
Answer: 30

Question: For “GPMLKNLSDAVT (Laminin 421/521-binding peptide)”, which Count is on record?
Answer: 31

Question: With “GQPRNIHLPGTH (Laminin 421/521-binding peptide)” as the substance, how does the Count read?
Answer: 40
